From patent publication EP0806422A2, “Anti-cataract agent” (Senju Pharmaceutical Co., Ltd., priority 1996, dated 1997)

What was measured:
[1] = target: T1, rat lens aldose reductase (Rattus norvegicus, UniProt P07943); test: Enzyme assay: inhibition of aldose reductase, monitored spectrophotometrically as decrease in NADPH absorbance at 340 nm; format: biochemical; details: 1x10^-4 M concentration; purified recombinant rat aldose reductase, in vitro; read-out: inhibition rate of aldose reductase
T1 construct: made in house; host or cells: Escherichia coli
Protocol: The activity of purified recombinant rat aldose reductase (Old SE, Sato S, Kador PF. and Carper DA.: In vitro expression of rat lens aldose reductase in Escherichia coli., Proc. Nat. Acad. Sci. USA, 87:4942-4945, 1990) was assayed by spectrophotometrically monitoring decrease in absorbance of NADPH (reduced nicotinamide adenine dinucleotide phosphate) at 340 nm (Kador PF., Goosey JD., Sharpless NE., Kolish J, and Miller DD.: Stereoscopic inhibition of aldose reductase, European J., Med. Chem. 16: 293-298, 1981).
One enzyme unit was defined as amount of enzyme consuming one micromole of NADPH under the assay conditions.
With reference to 1-N,N-dimethylsulfamoyl-4-(2-pyrimidinyl)piperazine (SRA-1; product of Example 3) and 4-((4-dimethylsulfamoyl)piperazino)-2,6-dimethoxypyrimidine (SRA-2; product of Example 1), their in vitro ability to inhibit rat lens aldose reductase were determined.

Diabetic Rats = test: Cataract formation in streptozotocin-induced diabetic rats, lens changes evaluated by slit lamp; format: in vivo, Sprague Dawley rats; details: 0.06% drug in rat chow; for cataract formation: Figure 1, result of Test Example 2; for cataract formation / onset and severity of sugar cataract formation / progress of lens changes to the vacuole stage: diabetic rats; for Lens changes were observed at: days after injection of streptozotocin, untreated diabetic lens changes began at 21 days; for onset and severity of sugar cataract formation: compared with control chow; for progress of lens changes to the vacuole stage: in untreated diabetic rats vacuoles clearly visible by 35 days
Protocol: Diabetes was induced in 40 young (60-80 g) Sprague Dawley rats by tail vein injection of 75 mg/kg streptozotocin in Tris-HCl and divided into 3 groups. After 4 days all rats were tested with glucostrips (tail blood), and those with blood sugar levels less than 250 mg % were reinjected with 70 mg/kg streptozotocin dissolved in Tris-HCl.
Drug administration was carried out by adding 0.06% drug to rat chow. The rat chow with added drug was formed by mixing appropriate amounts of each drug with powdered rat chow and then cold pressing the mixture into different size pellets for identification. The rat chow was commercially prepared by BioServe (Frenchtown, N.J.). Subsequently, each compound was dissolved in 500 ml of Tris buffer and mixed with 5 kg of standard rat chow pellets until all liquid was absorbed into the pellets and the wet pellets were dried for 24 hours at 60°C. Rat chow not containing drug was fed to a control group of rats.
Lens changes were evaluated by portable slit lamp at approximately 3-6 day intervals in the diabetic rats. Lens changes were evaluated on a scale at 0 to 3 as follows: 0 clear lens; 1 vacuoles present; 2 cortical opacities; 3 hypermature cataract. The severity of lens changes within the vacuole and cortical stage was further subjectively defined as follows: 1.2 peripheral equatorial vacuoles; 1.4 obvious formation 50% of the lens; 1.6 obvious vacuole formation 50% of lens; 1.8 total lens covered by vacuoles; 2.2 start of cortical changes with posterior capsule still visible by slit lamp; 2.4 advanced cortical opacities covering most of lens; cortical opacity expanded to whole lens; 2.8 total lens is white in appearance.

SMILES: CN(C)S(=O)(=O)N1CCN(c2ncccn2)CC1 [SRA-1, 1-N,N-dimethylsulfamoyl-4-(2-pyrimidinyl)piperazine]
- inhibition at 100 µM [1]: 5%
- cataract formation (Diabetic Rats): inhibited
- Lens changes were observed at (Diabetic Rats): 39 days
- onset and severity of sugar cataract formation (Diabetic Rats): delayed
- progress of lens changes to the vacuole stage (Diabetic Rats): did not progress to the vacuole stage

SMILES: COc1cc(N2CCN(S(=O)(=O)N(C)C)CC2)nc(OC)n1 [SRA-2, 4-((4-dimethylsulfamoyl)piperazino)-2,6-dimethoxypyrimidine]
- inhibition at 100 µM [1]: 13%
- cataract formation (Diabetic Rats): inhibited
- Lens changes were observed at (Diabetic Rats): 45 days
- onset and severity of sugar cataract formation (Diabetic Rats): delayed
- progress of lens changes to the vacuole stage (Diabetic Rats): did not progress to the vacuole stage
